Reference: US20090011410A1, “METHOD FOR TAILORING ADMINISTRATION OF DRUGS BY QUANTITATION OF MRNA” (priority 2004, published 2009)

System: p21 mRNA, U937 cells mixed with blood
Assay: etoposide-induced p21 mRNA expression from U937 cells mixed in healthy adult blood
Assay type: cell-based, human
Details: 10 μM etoposide-treated U937, 1,250 U937 cells added to 1 μL blood, vs DMSO-treated U937 (FIG. 2)
Protocol: The mRNA and cDNA were prepared from whole blood. In brief, home-made 96-well filterplates were placed over collection plates, and 150 μl 5 mM Tris, pH 7.4, was applied. Following centrifugation at 120×g for 1 min at 4° C., 50 μl of blood samples were applied to each well and immediately centrifuged at 120×g for 2 min at 4° C., followed by washing of each well with 300 μl PBS once with centrifugation at 2000×g for 5 min at 4° C. Then, 60 μl stock lysis buffer, containing for example 0.5% N-Lauroylsarcosine, 4×SSC, 10 mM Tris HCl, pH 7.4, 1 mM EDTA, 0.1% IGEPAL CA-630, and 1.791 M guanidine thiocyanate, supplemented with 1% 2-mercaptoethanol (Bio Rad, Hercules, Calif., USA), 0.5 mg/ml proteinase K (Pierce, Rockford, Ill., USA), 0.1 mg/ml salmon sperm DNA (5 Prime Eppendorf/Brinkmann, Westbury, N.Y., USA), 0.1 mg/ml E. coli tRNA (Sigma), a cocktail of 10 mM each of the specific reverse primers shown in Table 1, and standard RNA34 oligonucleotides, were applied to the filterplates, followed by incubation at 37° C. for 10 min. The filterplates were then placed over oligo(dT)-immobilized microplates (GenePlate, RNAture), and centrifuged at 2000×g for 5 min at 4° C. […] The Ct was determined by analytical software (SDS, ABI). […]

## COc1cc([C@@H]2c3cc4c(cc3[C@@H](O[C@@H]3O[C@@H]5CO[C@@H](C)O[C@H]5[C@H](O)[C@H]3O)[C@H]3COC(=O)[C@H]23)OCO4)cc(OC)c1O [VP-16, etoposide]
  p21 mRNA expression: significant
